Data as given in a melting point compilation (Tetko et al.; mined from patent text by program, amines drawn as free bases though some values may be those of a salt).

Point of comparison: `COc1ccc2ccccc2c1OP(=O)(O)O`, melting point 171 °C. Against it:
- Cn1ccc2cc(N3Cc4ccc(OCC(F)(F)F)cc4C3=O)ccc21 — higher, 182 to 188 °C
- COC(=O)C1=C(C)NC(C)=C(C(=O)OC)C1CCCCC(=O)O — lower, 150 to 151 °C
- Cc1cnc2ccnn2c1-c1cccc(C(F)(F)F)c1 — lower, 168 to 169 °C
- CC(C)NC(=S)n1ccc2cc(Cl)ccc21 — lower, 135 °C
- CCOC(=O)CCCn1c(Nc2cnc(N3CCCC3)cc2C)nc2c(Cl)ccc(C(CC)CC)c21 — higher, 195 to 196 °C
- CC(=O)Nc1ccc(S(=O)(=O)Nc2cscn2)cc1 — higher, 231 to 232 °C
- CC(C(=O)O)c1ccc(Nc2ccc(Cl)cc2)cc1 (configuration not stated) — lower, 106 to 109 °C
- CCCN1CCC(=O)C2=C1CSc1ccc(OC)cc12 — lower, 108 to 110 °C
- CCOC(=O)/C=C(C)/C=C/C=C(C)/C=C/c1c(C)coc1C — lower, 98 to 101 °C
- Cc1oc(Cc2cccc(Br)c2)c(C(=O)c2cc(C(C)C)c(OS(=O)(=O)c3ccc(C(=O)O)c(O)c3)c(C(C)C)c2)c1C — lower, 148 °C
- O=C(Nc1ccc(-c2nc(-c3ccco3)no2)c(Cl)c1)OCC(Cl)(Cl)Cl — higher, 219 to 220 °C
- CC(=O)Nc1ccccc1SCc1ncon1 — lower, 89 °C
- O=C(O)CCCc1nc(-c2cccnc2)c(-c2ccccc2)s1 — lower, 141 to 142 °C
- CNS(=O)(=O)c1cc2c(c(C(=O)NCC3CCN(C)C3)c1)OCCO2 (configuration not stated) — higher, 187 to 188 °C
- COc1cc2c(c3c1OC(C)(C)C3)C(c1ccccc1)=NC(C)(C)C2 — lower, 128 to 129 °C
- Cc1ccc2nc(Cl)c(C#N)c(Cl)c2c1 — lower, 159 °C
- CC(C)OC(=O)N1CCC(c2nc3cc(-c4ccc(C(N)=O)cc4Cl)ccc3o2)CC1 — higher, 178 to 182 °C
- CC(=O)OC1(C(C)CN(C)C)CCCCC1c1ccccc1 (single isomer, unassigned; (-)) — lower, 63 to 66 °C
- CC(=O)Nc1ccc(C(=O)c2cc(-c3ccc(NC(C)=O)cc3)c(N3CCOCC3)s2)cc1 — lower, 152 °C
- Fc1cc(OC2CCOCC2)c2c(Nc3c(Cl)ccc4c3OCO4)ncnc2c1 — higher, 209 to 212 °C
- CCC(CC)c1ccc(Cl)c2nc3n(c12)CCCCN3c1c(C)cc(C)cc1OC — higher, 196 to 198 °C
- COc1ccccc1N1CCN(CCCCNc2cc(Cl)nnc2Cl)CC1 — lower, 155 to 170 °C
- CCOC(=O)C(=CNc1ccccc1OC)C(C)=O — lower, 103 to 105 °C
- COc1ccc([N+](=O)[O-])cc1NC(=O)CC(=O)C1(C)COC(C)(C)OC1 — lower, 113 to 115 °C
- Cc1oc(-c2ccco2)nc1COc1ccc(COc2nn(-c3ccccc3)cc2C=O)cn1 — lower, 122 to 123 °C
- CC1(C)CC(=O)Oc2cc(O)ccc21 — lower, 84 to 85 °C
- COC(=O)/C=C(\C)c1ccc2c(c1)C(C)(C)OC(=O)N2 — lower, 131 to 132 °C
- CSC(=C[N+](=O)[O-])NCCCOc1cccc(CN2CCCCC2)c1 — lower, 68 to 69.5 °C
- Nc1c(Br)cc(Cc2cc(Br)c(N)c(Br)c2)cc1Br — higher, > 250 °C
- COc1ccc(C(=O)CCC2CCCCC2)c(OC)c1 — lower, 34 to 35 °C
- COc1cc2ncnc(N3CCC(C(C)CN4CCC(C)NS4(=O)=O)CC3)c2cc1OC (configuration not stated) — higher, 172 to 175 °C
- O=C(Nc1ccc(C(F)(F)F)cc1)C1=NN(c2cccc(Cl)c2)C(c2ccccc2)CC1 (configuration not stated) — higher, 183 to 184 °C
- COc1ccc(C)c2c1C(C=O)C1CCCCC21 (configuration not stated) — lower, 92 to 93 °C
- COc1ccc(-c2ccc(Br)cc2[N+](=O)[O-])cc1 — lower, 130 to 131 °C
- CCCCCCCCCCCCCCCCCCSC(C)(C)C(=O)CC(=O)Nc1ccccc1OC — lower, 59 to 61 °C
- N#CCc1ccnc2c(NC(=O)c3c(Cl)cccc3Cl)cccc12 — higher, 234 to 236 °C
- CCOC(OCC)c1cc(NC(c2ccccc2)(c2ccccc2)c2ccccc2)c(F)c(C2CCC2)n1 — lower, 121 to 122 °C
- CN(C)C(=O)NCc1ccc(Nc2n[nH]c3ncnc(Nc4cccc(Cl)c4)c23)cc1 — higher, 238 to 240 °C
- CN(C)CCC(=O)Nc1cccc([N+](=O)[O-])c1 — lower, 80 to 81 °C
- O=C(NCCO)c1cccc(-c2ccc3c(c2)C(Oc2ccc(Cl)cc2Cl)CC3)c1 (configuration not stated) — lower, 155 to 156 °C
- Cc1ccc2c(c1)c(Sc1ccc(Cl)cc1)c(C)n2CC(=O)O — higher, 219 to 221 °C
- CNC(=O)NC1CCC(=O)c2sccc21 (configuration not stated) — higher, 212 to 215 °C
- O=c1nc(-c2ccccc2)c2ccsc2n1CC1CC1 — higher, 191 to 192 °C
- CC(C)c1ccc(C#N)nc1 — lower, 47 to 49 °C
- Nc1ccccc1CN[C@@H](CSCC(=O)O)C(=O)O — higher, 214 °C
- O=C(O)C(O)(CSc1ccccc1)C(F)(F)F (configuration not stated) — lower, 83 to 84 °C
- CCOC(=O)[C@H](Cc1ccc(O)cc1)NC(=O)C(C)(C)NC(=O)[C@@H](SC(C)=O)C(C)C — lower, 137 to 138 °C
- C=CCc1ccc(C=CC(=O)c2ccc(OCC=C(C)C)cc2OCC(=O)O)cc1 — lower, 125 to 126 °C
- Clc1ccc(CNc2nc(-c3cccc(Cl)n3)nc3ccccc23)cc1 — higher, 187 to 190 °C
- CCC(=O)NC1CCc2c(ccc(OC)c2N)C1 (configuration not stated) — lower, 141 °C
- CCOC(=O)NN=COC(N)CC (configuration not stated) — lower, 100 °C
- COC(=O)Cc1ccc(OCCNC(=O)C2Cc3ccccc3N2S(=O)(=O)c2ccc(-c3cc(C(F)(F)F)ccc3C)cc2)cc1 (configuration not stated) — lower, 46 to 49 °C
- c1ccc(C(OC2CCN(CCCCNc3ccc4nncn4n3)CC2)c2ccccc2)cc1 — lower, 145 to 146 °C
- O=C(O)COc1ccc(SCc2ccccc2OCc2ccc(C(F)(F)F)cc2)c2c1CCC2 — lower, 150 to 152 °C
- BrCc1ccc2sc3ccc4ccccc4c3c2c1 — higher, 202 to 203 °C
- CCCNC1=NS(=O)(=O)c2cc(C(=O)O)ccc2N1 — higher, > 310 °C
- COc1nc(C)nc(NC(=O)NS(=O)(=O)c2ccccc2OCC2(C)OCCO2)n1 — lower, 135 to 136 °C
- CC(C)n1cc2c3c(cccc31)C1CC(C(=O)NC3CCCC3O)CN(C)C1C2 (configuration not stated) — higher, 232 to 234 °C
- COC(=O)CC(C(=O)OC)c1ccccc1 (configuration not stated) — lower, 54 to 56 °C
- O=C1NCCCN1CCCN(Cc1ccccc1)CC1CCc2ccccc2O1 (configuration not stated) — lower, 94.7 °C
- COc1cc(F)c(F)cc1OCCN — lower, 44 to 46 °C
- O=[N+]([O-])c1ccc(C2CCNCC2)cc1 — lower, 90 to 92 °C
- COc1ccc(C(=NO)c2cccc(F)c2F)c(O)c1Cl — higher, 198 to 199 °C
- CCCCCCCCCCCCCCCC(=O)NO — lower, 100 to 101 °C
- CC(C)(C)OC(=O)Nc1ccc2nc(-c3cccnc3)nn2c1 — higher, 296 °C
- CCC(CC)C(=O)O[C@H]1C[C@H](O)C=C2C=C[C@H](C)[C@H](CC[C@@H]3C[C@@H](O)CC(=O)O3)[C@H]21 — lower, 158 °C
- CCCCc1ncc(/C=C2\C(=O)N(CC(=O)OCC)c3c(OC)cccc32)n1Cc1ccc(C(=O)OC)cc1 — lower, 157 to 158 °C
- NS(=O)(=O)N1CC2(CCN(C(=O)Nc3nnc(-c4ccccc4)s3)CC2)c2ccccc21 — higher, > 300 °C
- CNc1nnc(-c2ccccc2)c(=O)n1NC — lower, 150 to 151 °C
- COC(=O)c1nc(S(C)(=O)=O)ncc1Cl — lower, 96 °C
- Cn1c(Cl)nc2c3ncc(Cl)cc3ccc21 — higher, 211 to 213 °C
- COc1ccc(S(=O)(=O)Nc2cccnc2NC(=O)c2ccccc2C)cc1 — lower, 160 to 162 °C
- O=c1c(-c2ccccc2)coc2cc(OCC3CO3)ccc12 (configuration not stated) — lower, 151 to 152 °C
- CCOC(=O)Oc1ccc2nc(S)n(C)c(=O)c2c1 — higher, 216 to 220 °C
- CCCc1c(C(=O)C(C)C)c2ccc(C(=O)O)cc2n1Cc1ccccc1F — higher, 212 to 213 °C
- COC1=Nc2c(C)ccnc2N(C2CC2)c2ncccc21 — higher, 191 to 192 °C
- CC(C)(C)CN1C(=O)[C@@H](CC(=O)Nc2cccc(-c3nnn[nH]3)c2)O[C@H](c2ccccc2Cl)c2cc(Cl)ccc21 (relative stereo) — higher, 218 to 220 °C
- CCCCOC(=O)NS(=O)(=O)c1ccccc1-c1ccc(Cn2c(CCC)nc(SC)c2C(=O)O)cc1 — higher, 202 to 204 °C
- Cc1cc(Cn2nc(C(F)(F)C(F)(F)F)nc2C(F)(F)F)ccc1NC(=O)c1cccc(Br)c1C(=O)N[C@@H](C)CS(C)(=O)=O — lower, 104 to 108 °C
- COC1(c2cccc(S(=O)(=O)c3ccc4c(c3)C(C)(C)C(=O)N4C)c2)CCOCC1 — lower, 164 to 166 °C
- O=P(O)(O)C(O)(Cc1c[nH]cn1)P(=O)(O)O — higher, > 290 °C
- COC(=O)CCc1ccc(C(c2cc(F)ccc2F)S(=O)(=O)c2ccc(Cl)cc2)nc1 (configuration not stated) — lower, 121 to 123 °C
- COc1cc2c(cc1C(C)=O)sc1ccccc12 — lower, 163 to 165 °C
- O=C(NCC1CCCO1)c1c[nH]c2ccccc2c1=O (configuration not stated) — higher, 205 to 209 °C
- CC(C)(C)Nc1nc(Cl)nc(Cl)n1 — lower, 129 to 130 °C
- CCCSc1cc(-c2c[nH]nc2C(F)(F)F)ccc1C(=O)OC — lower, 114 to 116 °C
- CCOC(=O)C1CCn2c(cc3ccccc32)C1 (configuration not stated) — lower, 70 to 72 °C
- COc1cc(Cl)cc(Cl)c1C=O — lower, 110 to 111 °C
- CCOC(=O)c1nc(NC(=N)N=CN(C)C)sc1-c1ccncc1 — higher, 203 to 204 °C
- CON(C)C(=O)Nc1ccc(CN2OCCC(C)(C)C2=O)c(Cl)c1 — lower, 116 to 118 °C
- CC(=O)NCc1cccc(Nc2nccc(-c3sc(N(C)c4cc(Cl)cc(Cl)c4)nc3C)n2)c1 — higher, 213 to 214 °C
- CCC(=C1SCN(C)CS1)c1ccc(Oc2ccccc2)cc1 — lower, 96 to 96.5 °C
- Cc1nnc(-c2ccnc(NCc3cccc(C(F)(F)F)c3)c2)o1 — lower, 141 to 142 °C
- O=C1Cc2cc(C(=O)O)ccc2N1 — higher, > 300 °C
- COc1ccc([C@H]2c3[nH]c4ccccc4c3C[C@H]3C(=O)N(CCc4ccccn4)C(=O)N23)cc1 (relative stereo) — lower, 140 to 143 °C
- OCC1(c2ccccc2)CCN(Cc2ccccc2)CC1 — lower, 127 °C
- CN1CCN(CCCCNc2ncc3cc(-c4c(Cl)cccc4Cl)c(=O)n(C)c3n2)CC1 — lower, 130 to 132 °C
- CN1CCN(C2=Nc3ccccc3N=C(N3CCN(C)CC3)C2)CC1 — higher, 227 to 228 °C
- COC(C)=CC(=O)Nc1cccc(C)c1 — lower, 106 °C
- NC(Cc1cccc(C(F)(F)F)c1)=NO — lower, 91 to 92 °C
- O=C(O)c1ccc(CCCC2SCC(=O)N2CC#CC2(O)CCCCC2)cc1 (configuration not stated) — lower, 112 to 115 °C
